Measurements as given in patent US9993464B2 (SANOFI, priority 2011, dated 2018).
“And” between values parts separate entries of the source, which are not always exact repeats. Equal values may be shown once. Read-outs that look alike come from different tables or passages of the source.

Columns and labels:
factor Xa = biological target: T1, factor Xa (Homo sapiens, UniProt P00742); conditions: patients with stable coronary artery disease; cited from earlier work
T1 construct: host or cells: blood of patients (in vivo, clinical trial)

[1] = Level of impurities in dependency on pH and repeated autoclaving (HPLC), Example 6; type: physicochemical
Description: The appropriate pH value was adjusted by using sodium hydroxide solution (1 M sodium hydroxide) or diluted hydrochloric acid (1 M hydrochloric acid). […] HP Zorbax SB-C18, 3.5 μm • Column material: stainless steel • Column length: 150 mm • Column internal diameter: 4.6 mm • Equilibration of the column: Column must be rinsed with mobile phase B (% B=25) for at least 60 minutes at a flow rate of 1 mL/min prior to sample injection. • Storage of the column: Column can be stored in acetonitrile/water=20/80 (v/v) Mobile Phase A […] The mobile phase was filtered through a 1.5 μm filter. Typically, add 500 mL of mobile phase A to 500 mL of acetonitrile. Mix and degas. [table] Procedure • Flow rate: 1 mL/min • Injection volume: 40 μl • Auto sampler temperature: Set autosampler temperature at +12° C. • Column temperature: […]

models of thrombosis [2] = conditions: canine; cited from earlier work
[3] = Level of impurities in dependency on Otamixaban concentration and autoclaving (HPLC), Example 7; type: physicochemical; conditions: autoclaving
Text: The appropriate pH value was adjusted by using sodium hydroxide solution (1 M sodium hydroxide) or diluted hydrochloric acid (1 M hydrochloric acid).

models of thrombosis [4] = conditions: rodent; cited from earlier work
[5] = Level of impurities in dependency on pH and storage time (HPLC), Example 8; type: physicochemical; conditions: 40° C./75% RH
Description: The appropriate pH value was adjusted by using sodium hydroxide solution (1 M sodium hydroxide) or diluted hydrochloric acid (1 M hydrochloric acid). The prepared vials were autoclaved one time and were stored at 40° C. and 75% RH (relative humidity).

acute coronary syndrome = conditions: humans; cited from earlier work
models of thrombosis [6] = conditions: porcine; cited from earlier work
[7] = test system: prothrombin fragments 1+2; conditions: dose-ranging clinical trial; highest dose regimen; cited from earlier work
[8] = pH 2.5, number of autoclaving 0
[9] = pH 2.5, number of autoclaving 1
[10] = pH 3.2, number of autoclaving 0
[11] = pH 3.2, number of autoclaving 1
[12] = pH 3.2, number of autoclaving 3
[13] = pH 3.5, number of autoclaving 0
[14] = pH 3.5, number of autoclaving 1
[15] = pH 3.7, number of autoclaving 0
[16] = pH 3.7, number of autoclaving 1
[17] = pH 3.7, number of autoclaving 3
[18] = pH 4.0, number of autoclaving 0
[19] = pH 4.0, number of autoclaving 1
[20] = pH 4.2, number of autoclaving 0
[21] = pH 4.5, number of autoclaving 0
[22] = pH 4.5, number of autoclaving 1
[23] = pH 4.7, number of autoclaving 0
[24] = pH 4.7, number of autoclaving 2

T1 sequence (P00742 235-488 limits assumed): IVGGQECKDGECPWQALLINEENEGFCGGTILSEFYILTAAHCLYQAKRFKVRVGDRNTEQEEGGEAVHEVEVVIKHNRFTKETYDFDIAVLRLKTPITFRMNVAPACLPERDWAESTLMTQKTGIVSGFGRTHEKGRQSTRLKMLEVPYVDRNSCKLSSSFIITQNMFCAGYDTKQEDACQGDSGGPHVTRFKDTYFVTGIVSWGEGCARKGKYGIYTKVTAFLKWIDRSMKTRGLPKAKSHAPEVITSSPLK
T1 sequence (P00742 41-179 partner limits assumed): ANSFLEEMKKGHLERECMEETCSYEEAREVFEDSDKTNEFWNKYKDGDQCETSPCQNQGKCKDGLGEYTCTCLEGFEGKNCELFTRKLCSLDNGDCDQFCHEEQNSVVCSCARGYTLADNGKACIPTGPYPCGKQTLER

Increase of Formula II (carbamimidoyl-benzyl butyric acid) [1, 8]: 0.10% | Increase of Formula III (carbamoyl-benzyl butyric acid methyl ester) [1, 8]: 0.39% | Increase of Formula II (carbamimidoyl-benzyl butyric acid) [1, 9]: 0.33% | Increase of Formula III (carbamoyl-benzyl butyric acid methyl ester) [1, 9]: 0.71% | Increase of Formula II (carbamimidoyl-benzyl butyric acid) ([1]; pH 2.5, number of autoclaving 2): 0.56% | Increase of Formula III (carbamoyl-benzyl butyric acid methyl ester) ([1]; pH 3.0, number of autoclaving 0): 0.39% | Increase of Formula III (carbamoyl-benzyl butyric acid methyl ester) ([1]; pH 3.0, number of autoclaving 1): 0.74% | Increase of Formula II (carbamimidoyl-benzyl butyric acid) [1, 10]: 0.08% | Increase of Formula III (carbamoyl-benzyl butyric acid methyl ester) [1, 10]: 0.39% | Increase of Formula II (carbamimidoyl-benzyl butyric acid) [1, 11]: 0.15% | Increase of Formula III (carbamoyl-benzyl butyric acid methyl ester) [1, 11]: 0.76% | Increase of Formula II (carbamimidoyl-benzyl butyric acid) ([1]; pH 3.2, number of autoclaving 2): 0.21% | Increase of Formula II (carbamimidoyl-benzyl butyric acid) [1, 12]: 0.27% | Increase of Formula III (carbamoyl-benzyl butyric acid methyl ester) [1, 12]: 1.50% | Increase of Formula II (carbamimidoyl-benzyl butyric acid) [1, 13]: 0.08% | Increase of Formula III (carbamoyl-benzyl butyric acid methyl ester) [1, 13]: 0.39% | Increase of Formula II (carbamimidoyl-benzyl butyric acid) [1, 14]: 0.12% | Increase of Formula III (carbamoyl-benzyl butyric acid methyl ester) [1, 14]: 0.81% | Increase of Formula II (carbamimidoyl-benzyl butyric acid) ([1]; pH 3.5, number of autoclaving 2): 0.17% | Increase of Formula II (carbamimidoyl-benzyl butyric acid) ([1]; pH 3.5, number of autoclaving 3): 0.21% | Increase of Formula II (carbamimidoyl-benzyl butyric acid) [1, 15]: 0.08% | Increase of Formula III (carbamoyl-benzyl butyric acid methyl ester) [1, 15]: 0.39% | Increase of Formula II (carbamimidoyl-benzyl butyric acid) [1, 16]: 0.11% and 0.12% | Increase of Formula III (carbamoyl-benzyl butyric acid methyl ester) [1, 16]: 0.87% and 0.84% | Increase of Formula II (carbamimidoyl-benzyl butyric acid) ([1]; pH 3.7, number of autoclaving 2): 0.16% | Increase of Formula II (carbamimidoyl-benzyl butyric acid) [1, 17]: 0.20% and 0.19% | Increase of Formula III (carbamoyl-benzyl butyric acid methyl ester) [1, 17]: 1.80% | Increase of Formula II (carbamimidoyl-benzyl butyric acid) [1, 18]: 0.08% | Increase of Formula III (carbamoyl-benzyl butyric acid methyl ester) [1, 18]: 0.39% | Increase of Formula II (carbamimidoyl-benzyl butyric acid) [1, 19]: 0.12% | Increase of Formula III (carbamoyl-benzyl butyric acid methyl ester) [1, 19]: 0.95% | Increase of Formula II (carbamimidoyl-benzyl butyric acid) ([1]; pH 4.0, number of autoclaving 2): 0.16% | Increase of Formula II (carbamimidoyl-benzyl butyric acid) ([1]; pH 4.0, number of autoclaving 3): 0.19% | Increase of Formula II (carbamimidoyl-benzyl butyric acid) [1, 20]: 0.07% | Increase of Formula III (carbamoyl-benzyl butyric acid methyl ester) [1, 20]: 0.39% | Increase of Formula II (carbamimidoyl-benzyl butyric acid) ([1]; pH 4.2, number of autoclaving 1): 0.13% | Increase of Formula II (carbamimidoyl-benzyl butyric acid) ([1]; pH 4.2, number of autoclaving 2): 0.18% | Increase of Formula II (carbamimidoyl-benzyl butyric acid) ([1]; pH 4.2, number of autoclaving 3): 0.22% | Increase of Formula II (carbamimidoyl-benzyl butyric acid) [1, 21]: 0.08% | Increase of Formula III (carbamoyl-benzyl butyric acid methyl ester) [1, 21]: 0.39% | Increase of Formula II (carbamimidoyl-benzyl butyric acid) [1, 22]: 0.15% | Increase of Formula III (carbamoyl-benzyl butyric acid methyl ester) [1, 22]: 1.40% | Increase of Formula II (carbamimidoyl-benzyl butyric acid) ([1]; pH 4.5, number of autoclaving 2): 0.24% | Increase of Formula II (carbamimidoyl-benzyl butyric acid) ([1]; pH 4.5, number of autoclaving 3): 0.30% | Increase of Formula II (carbamimidoyl-benzyl butyric acid) [1, 23]: 0.08% | Increase of Formula III (carbamoyl-benzyl butyric acid methyl ester) [1, 23]: 0.39% | Increase of Formula II (carbamimidoyl-benzyl butyric acid) ([1]; pH 4.7, number of autoclaving 1): 0.20% | Increase of Formula II (carbamimidoyl-benzyl butyric acid) [1, 24]: 0.32% | Increase of Formula III (carbamoyl-benzyl butyric acid methyl ester) [1, 24]: 3.20% | Increase of Formula II (carbamimidoyl-benzyl butyric acid) ([1]; pH 4.7, number of autoclaving 3): 0.43% | Increase of Formula II (carbamimidoyl-benzyl butyric acid) ([5]; pH 2.5, storage time 0 months): 0.33% | Increase of Formula III (carbamoyl-benzyl butyric acid methyl ester) ([5]; pH 2.5, storage time 0 months): 0.71% | Increase of Formula III (carbamoyl-benzyl butyric acid methyl ester) ([5]; pH 2.5, storage time 1 months): 0.77% | Increase of Formula III (carbamoyl-benzyl butyric acid methyl ester) ([5]; pH 2.5, storage time 3 months): 0.86% | Increase of Formula II (carbamimidoyl-benzyl butyric acid) ([5]; pH 2.5, storage time 6 months): 7.10% | Increase of Formula III (carbamoyl-benzyl butyric acid methyl ester) ([5]; pH 2.5, storage time 6 months): 0.98% | Increase of Formula II (carbamimidoyl-benzyl butyric acid) ([5]; pH 3.0, storage time 0 months): 0.18% | Increase of Formula III (carbamoyl-benzyl butyric acid methyl ester) ([5]; pH 3.0, storage time 0 months): 0.74% | Increase of Formula II (carbamimidoyl-benzyl butyric acid) ([5]; pH 3.0, storage time 1 months): 0.58% | Increase of Formula III (carbamoyl-benzyl butyric acid methyl ester) ([5]; pH 3.0, storage time 1 months): 0.82% | Increase of Formula III (carbamoyl-benzyl butyric acid methyl ester) ([5]; pH 3.0, storage time 3 months): 0.96% | Increase of Formula II (carbamimidoyl-benzyl butyric acid) ([5]; pH 3.2, storage time 0 months): 0.15% | Increase of Formula III (carbamoyl-benzyl butyric acid methyl ester) ([5]; pH 3.2, storage time 0 months): 0.76% | Increase of Formula II (carbamimidoyl-benzyl butyric acid) ([5]; pH 3.2, storage time 1 months): 0.41% | Increase of Formula III (carbamoyl-benzyl butyric acid methyl ester) ([5]; pH 3.2, storage time 1 months): 0.85% | Increase of Formula II (carbamimidoyl-benzyl butyric acid) ([5]; pH 3.2, storage time 3 months): 0.93% | Increase of Formula III (carbamoyl-benzyl butyric acid methyl ester) ([5]; pH 3.2, storage time 3 months): 1.00% | Increase of Formula II (carbamimidoyl-benzyl butyric acid) ([5]; pH 3.5, storage time 0 months): 0.12% | Increase of Formula III (carbamoyl-benzyl butyric acid methyl ester) ([5]; pH 3.5, storage time 0 months): 0.81% | Increase of Formula II (carbamimidoyl-benzyl butyric acid) ([5]; pH 3.5, storage time 1 months): 0.27% | Increase of Formula III (carbamoyl-benzyl butyric acid methyl ester) ([5]; pH 3.5, storage time 1 months): 0.91% | Increase of Formula II (carbamimidoyl-benzyl butyric acid) ([5]; pH 3.5, storage time 3 months): 0.55% | Increase of Formula II (carbamimidoyl-benzyl butyric acid) ([5]; pH 3.5, storage time 6 months): 0.99% | Increase of Formula II (carbamimidoyl-benzyl butyric acid) ([5]; pH 3.7, storage time 0 months): 0.11% | Increase of Formula III (carbamoyl-benzyl butyric acid methyl ester) ([5]; pH 3.7, storage time 0 months): 0.87% | Increase of Formula II (carbamimidoyl-benzyl butyric acid) ([5]; pH 3.7, storage time 1 months): 0.22% | Increase of Formula III (carbamoyl-benzyl butyric acid methyl ester) ([5]; pH 3.7, storage time 1 months): 0.96% | Increase of Formula II (carbamimidoyl-benzyl butyric acid) ([5]; pH 3.7, storage time 3 months): 0.42% | Increase of Formula II (carbamimidoyl-benzyl butyric acid) ([5]; pH 3.7, storage time 6 months): 0.72% | Increase of Formula II (carbamimidoyl-benzyl butyric acid) ([5]; pH 4.0, storage time 0 months): 0.12% | Increase of Formula III (carbamoyl-benzyl butyric acid methyl ester) ([5]; pH 4.0, storage time 0 months): 0.95% | Increase of Formula II (carbamimidoyl-benzyl butyric acid) ([5]; pH 4.0, storage time 1 months): 0.18% | Increase of Formula II (carbamimidoyl-benzyl butyric acid) ([5]; pH 4.0, storage time 3 months): 0.32% | Increase of Formula II (carbamimidoyl-benzyl butyric acid) ([5]; pH 4.0, storage time 6 months): 0.52% | Increase of Formula II (carbamimidoyl-benzyl butyric acid) ([5]; pH 4.2, storage time 0 months): 0.13% | Increase of Formula II (carbamimidoyl-benzyl butyric acid) ([5]; pH 4.2, storage time 1 months): 0.18% | Increase of Formula III (carbamoyl-benzyl butyric acid methyl ester) ([5]; pH 4.2, storage time 1 months): 1.20% | Increase of Formula II (carbamimidoyl-benzyl butyric acid) ([5]; pH 4.2, storage time 3 months): 0.27% | Increase of Formula II (carbamimidoyl-benzyl butyric acid) ([5]; pH 4.2, storage time 6 months): 0.43% | Increase of Formula II (carbamimidoyl-benzyl butyric acid) ([5]; pH 4.5, storage time 0 months): 0.15% | Increase of Formula III (carbamoyl-benzyl butyric acid methyl ester) ([5]; pH 4.5, storage time 0 months): 1.40% | Increase of Formula II (carbamimidoyl-benzyl butyric acid) ([5]; pH 4.5, storage time 1 months): 0.20% | Increase of Formula II (carbamimidoyl-benzyl butyric acid) ([5]; pH 4.5, storage time 3 months): 0.30% | Increase of Formula II (carbamimidoyl-benzyl butyric acid) ([5]; pH 4.5, storage time 6 months): 0.44% | Increase of Formula II (carbamimidoyl-benzyl butyric acid) ([5]; pH 4.7, storage time 0 months): 0.20% | Increase of Formula II (carbamimidoyl-benzyl butyric acid) ([5]; pH 4.7, storage time 1 months): 0.25% | Increase of Formula II (carbamimidoyl-benzyl butyric acid) ([5]; pH 4.7, storage time 3 months): 0.36% | Increase of Formula II (carbamimidoyl-benzyl butyric acid) ([5]; pH 4.7, storage time 6 months): 0.52%
SMILES: COC(=O)[C@H](Cc1cccc(C(=N)N)c1)[C@@H](C)NC(=O)c1ccc(-c2cc[n+]([O-])cc2)cc1 (mixture of isomers) [Otamixaban, Methyl (2R,3R)-2-{3-[amino(imino)methyl]benzyl}-3-{[4-(1-oxidopyridin-4-yl)benzoyl]amino}butanoate]
factor Xa inhibition in patients (factor Xa): dose-dependent, rapid direct factor Xa inhibition | efficacy in models of thrombosis (models of thrombosis [2]): highly efficacious | dependence of Formula III level on Otamixaban concentration or vial volume [3]: independent from the concentration of Otamixaban or vial volume | efficacy in models of thrombosis (models of thrombosis [4]): highly efficacious | clinical findings: efficacy, safety, tolerability (acute coronary syndrome): efficacious, safe and well tolerated | efficacy in models of thrombosis (models of thrombosis [6]): highly efficacious | reduction of prothrombin fragments 1+2 versus unfractionated heparin [7]: reduced prothrombin fragments 1+2 significantly more than unfractionated heparin
